Measured values as given in ChEMBL document CHEMBL3351664, “Acylphloroglucinol derivatives from Hypericum andinum: antidepressant-like activity of andinin A” (J Nat Prod, 2014).

Columns and labels:
Mus musculus [1] = experiment: Antidepressant-like activity in po dosed mouse assessed as reduction in the immobility time by forced-swimming test; format: functional, organism-based
Mus musculus [2] = experiment: Toxicity in po dosed CF1 mouse assessed as effect on locomotor activity at 30 mg/kg, po measured after 60 mins by open-field test; format: organism-based; set-up: dose 30 mg/kg, route oral; settings: in vivo, 1 h

Q: With `CC(C)=CCOc1cc(O)c(C(=O)C(C)C)c(O)c1CC1=C(O)C(C)(C)C(O)=C(C(=O)C(C)C)C1=O` as the molecule, how does the Activity (Mus musculus [1]) read?
A: Its Activity is “Dose-dependent effect”.

Q: What about the Activity (Mus musculus [2]) of the same molecule?
A: The Activity was “Non-toxic”.
